Values joined by “and” are separate entries in the source; they are usually repeats but may differ in a detail not shown here. Equal values may be shown once.
Assays:
HepG2 spheroids [1] = test: ALB secretion (Human Albumin ELISA) in the DILI toxicity test on HepG2 spheroids; assay type: cell-based; conditions: 10*Cmax, end of Day 3 (72 h), individual replicates n = 3, unit from Fig. S3 legend
Procedure: (§1) The HepG2 cells were donated by Avatarget Co., Ltd (Suzhou, China). The HepG2 cells were cultured in DMEM (Gibco, 10567014) containing 10% fetal bovine serum (GIBCO, A3161001C), and 1×penicillin/streptomycin (Gibco, 15140148). HepG2 cells (70–80% cell confluency) were washed twice in sterile PBS and then dissociated with 1 mL 0.25% EDTA-Trypsin. Using 3×volume of the complete medium neutralized with reagent above, count cells and ensure 10,000 cells/well. The desired volume of cell suspension was inoculated into the 200 μL/well of ultra-low attachment microplate (Corning, 7007). The plate was centrifuged at 1500 rpm for 10 min and then incubated in an incubator at 37 °C in 5% CO2 for 4 days. The medium is changed every other day at a 1:1 ratio.
(§2) The peak serum concentration (Cmax) can intuitively reflect the actual presence level of a drug in the body’s circulatory system. Therefore, we used 1*Cmax as a reference for the drug dosage to better approximate the in vivo conditions. On this basis, we selected 10*Cmax as the reference concentration, taking into account the coefficient of variation in toxicology (individual variability: tenfold). […] Each drug was tested in triplicate. Plates were dosed with the drug for 72 h in each cycle (referred to as Day 0 through Day 3). […] At the end of day 3, the supernatant from each well was collected to determine ALB secretion, and the spheroids from each well were used for the cell viability assay. The Cmax information of the drugs is shown in Supplementary Table 3.
The culture supernatants were collected and stored at −80 °C until use. The supernatant was assayed with a Human Albumin ELISA Kit (PROTEINTECH, KE00076). Assays were performed according to the manufacturer’s instructions.

HepG2 spheroids [2] = test: Cellular viability (ATP, CellTiter-Glo) in the DILI toxicity test on HepG2 spheroids; assay type: cell-based; conditions: 10*Cmax, end of Day 3 (72 h), individual replicates n = 3, unit from Fig. S4 legend
Procedure: as §1, §2
CellTiter-Glo (CTG, G9681, PROMEGA) reagent and culture medium were added to each well in a 1:1 ratio. The contents were mixed for 2 min to induce cell lysis. The plate was incubated at room temperature for 10 min to stabilize the luminescent signal. Recording of luminescence was carried out with BioTek Microplate Reader Synergy H1 (Vermont, USA).

[3] = cited from earlier work; for Label section / Severity class: DILIrank; for Label section: FDA drug label section; for DILIrank: FDA DILIrank category based on clinical data
[4] = peak serum concentration used as dosing reference; source not given; cited from earlier work

In the case of `N[C@@H]1[C@H]2CN(c3nc4c(cc3F)c(=O)c(C(=O)O)cn4-c3ccc(F)cc3F)C[C@@H]12` [Trovafloxacin], the ALB inhibition (HepG2 spheroids [1]) is listed as 28% and 76% and 63%, the ATP inhibition (HepG2 spheroids [2]) is listed as 52% and 58% and the Label section [3] is listed as “Withdrawn”. For the same compound, the Cmax [4] was 2.09 µg/mL.
In the case of `C[C@]12CCC(=O)C=C1CC[C@@H]1[C@@H]2[C@@H](O)C[C@@]2(C)[C@H]1CC[C@]2(O)C(=O)CO` [Hydrocortisone], the ALB inhibition (HepG2 spheroids [1]) is listed as -33% and -30% and -26%, the ATP inhibition (HepG2 spheroids [2]) is listed as -17% and -20% and -30% and the Label section [3] is listed as “No match”. For the same compound, the Severity class [3] was 0, the DILIrank [3] was “vNo-DILI-Concern” and the Cmax [4] was 0.305 µg/mL.
For `O=P1(N(CCCl)CCCl)NCCCO1` (stereo not shown) [Cyclophosphamide], the ALB inhibition (HepG2 spheroids [1]) is listed as 90% and 54% and 78%, the ATP inhibition (HepG2 spheroids [2]) is listed as 36% and 26% and 38% and the Label section [3] is listed as “Adverse reactions”. For the same compound, the Severity class [3] was 5, the DILIrank [3] was “vLess-DILI-Concern” and the Cmax [4] was 69 µg/mL.

— publication PMC12145446, “Development of an AI model for DILI-level prediction using liver organoid brightfield images” (Communications Biology, 2025)
